Earlier results, collected in patent publication US20030100472A1, “Detergent tablet compositions” (Unilever Home & Personal Care USA, Division of Conopco, Inc., priority 2001, published 2003).
Where two headings read alike, the source gives them in different places.

Water Solubility (g/100 g) (grams of solid required to form a saturated solution in 100 grams of water at 20° C., highly water-soluble materials)	SMILES	Water Solubility (g/100 g) (at 20° C., other materials)
–	O=BO[O-].[Na+] [Sodium perborate anhydrous]	3.7 g/100 g
–	O=P(O)(O)OP(=O)(O)OP(=O)(O)O [Sodium tripolyphosphate anhydrous]	15 g/100 g
>100 g/100 g	NC(N)=O [Urea]	–
